# Measurements reported in US20250312462A1, “PAK1 DEGRADERS AND METHODS OF USE THEREOF” (INSTITUTE FOR CANCER RESEARCH D/B/A THE RESEARCH INSTITUTE …, priority 2022, published 2025).
# Columns and labels:
# [1] = biological target: TSSK3 (Homo sapiens, UniProt Q96PN8); experiment: KINOMEscan; settings: read-out: Percent Control
# Procedure: (§1) The kinase engagement assay (KINOMEscan®) was performed by DiscoverX assessing binding abilities toward a set of kinases.
# [2] = biological target: EGFR(G719S) (Homo sapiens, UniProt P00533, G719S); experiment: KINOMEscan; settings: read-out: Percent Control
# Procedure: as §1
# [3] = biological target: AXL (Homo sapiens, UniProt P30530); experiment: KINOMEscan; settings: read-out: Percent Control
# Procedure: as §1
# [4] = biological target: DLK (Homo sapiens, UniProt Q12852); experiment: KINOMEscan; settings: read-out: Percent Control
# Procedure: as §1
# [5] = biological target: IKK-epsilon (Homo sapiens, UniProt Q14164); experiment: KINOMEscan; settings: read-out: Percent Control
# Procedure: as §1
# [6] = biological target: PIM1 (Homo sapiens, UniProt P11309); experiment: KINOMEscan; settings: read-out: Percent Control
# Procedure: as §1
# [7] = biological target: MLCK (Homo sapiens, UniProt Q32MK0); experiment: KINOMEscan; settings: read-out: Percent Control
# Procedure: as §1
# [8] = biological target: FLT1 (Homo sapiens, UniProt P17948); experiment: KINOMEscan; settings: read-out: Percent Control
# Procedure: as §1
# [9] = biological target: TLK1 (Homo sapiens, UniProt Q9UKI8); experiment: KINOMEscan; settings: read-out: Percent Control
# Procedure: as §1
# [10] = biological target: RET(V804L) (Homo sapiens, UniProt P07949, V804L); experiment: KINOMEscan; settings: read-out: Percent Control
# Procedure: as §1
# [11] = biological target: PHKG1 (Homo sapiens, UniProt Q16816); experiment: KINOMEscan; settings: read-out: Percent Control
# Procedure: as §1
# [12] = biological target: FLT3 (Homo sapiens, UniProt P36888); experiment: KINOMEscan; settings: read-out: Percent Control
# Procedure: as §1
# [13] = biological target: CSF1R (Homo sapiens, UniProt P07333); experiment: KINOMEscan; settings: read-out: Percent Control
# Procedure: as §1
# [14] = biological target: CDK4-cyclinD1 (Homo sapiens, UniProt P11802); experiment: KINOMEscan; settings: read-out: Percent Control
# Procedure: as §1
# [15] = biological target: PAK1 (Homo sapiens, UniProt Q13153); experiment: PAK1 degradation in Panc1 cells, Western blot; format: cell-based; design: endogenous in cells; settings: compared with BJG-05-014 and BJG-05-027
# Procedure: In vitro kinase assays were performed using recombinant PAK1 and PAK2, using a library of small molecule protein kinase inhibitors. […] FIG. 1C is a series of Western blots showing the degradation of PAK1 in Panc1 cells by the NVS-PAK1-1-based (allosteric) degraders BJG-05-014, BJG-05-027, and BJG-05-039. Quantification is shown below in the bar graph. FIG. 1D is a series of Western blots showing PAK1, PAK2, and GAPDH in Panc1 cells treated with the indicated amounts of the NVS-PAK1-1-based degrader BJG-05-039 and ATP-competitive degraders BJG-05-093, BJG-05-094, and BJG-05-095.
# BJG-05-014, BJG-05-027, and BJG-05-039 were tested in Panc1 cells for their ability to degrade PAK1.
# [16] = biological target: CIT (Homo sapiens, UniProt O14578); experiment: KINOMEscan; settings: read-out: Percent Control
# Procedure: as §1
# [17] = biological target: ACVR2B (Homo sapiens, UniProt Q13705); experiment: KINOMEscan; settings: read-out: Percent Control
# Procedure: as §1
# [18] = biological target: PCTK3 (Homo sapiens, UniProt Q07002); experiment: KINOMEscan; settings: read-out: Percent Control
# Procedure: as §1
# [19] = biological target: ACVR1B (Homo sapiens, UniProt P36896); experiment: KINOMEscan; settings: read-out: Percent Control
# Procedure: as §1
# [20] = biological target: INSR (Homo sapiens, UniProt P06213); experiment: KINOMEscan; settings: read-out: Percent Control
# Procedure: as §1
# [21] = biological target: SYK (Homo sapiens, UniProt P43405); experiment: KINOMEscan; settings: read-out: Percent Control
# Procedure: as §1
# [22] = biological target: NLK (Homo sapiens, UniProt Q9UBE8); experiment: KINOMEscan; settings: read-out: Percent Control
# Procedure: as §1
# [23] = biological target: STK36 (Homo sapiens, UniProt Q9NRP7); experiment: KINOMEscan; settings: read-out: Percent Control
# Procedure: as §1
# [24] = biological target: PLK4 (Homo sapiens, UniProt O00444); experiment: KINOMEscan; settings: read-out: Percent Control
# Procedure: as §1
# [25] = biological target: MAP3K1 (Homo sapiens, UniProt Q13233); experiment: KINOMEscan; settings: read-out: Percent Control
# Procedure: as §1
# [26] = biological target: EGFR(G719C) (Homo sapiens, UniProt P00533, G719C); experiment: KINOMEscan; settings: read-out: Percent Control
# Procedure: as §1
# [27] = biological target: FYN (Homo sapiens, UniProt P06241); experiment: KINOMEscan; settings: read-out: Percent Control
# Procedure: as §1
# [28] = biological target: CDK9 (Homo sapiens, UniProt P50750); experiment: KINOMEscan; settings: read-out: Percent Control
# Procedure: as §1
# [29] = biological target: CAMK4 (Homo sapiens, UniProt Q16566); experiment: KINOMEscan; settings: read-out: Percent Control
# Procedure: as §1
# [30] = biological target: MEK5 (Homo sapiens, UniProt Q13163); experiment: KINOMEscan; settings: read-out: Percent Control
# Procedure: as §1
# [31] = biological target: CHEK2 (Homo sapiens, UniProt O96017); experiment: KINOMEscan; settings: read-out: Percent Control
# Procedure: as §1
# [32] = biological target: DAPK1 (Homo sapiens, UniProt P53355); experiment: KINOMEscan; settings: read-out: Percent Control
# Procedure: as §1
# [33] = biological target: NEK11 (Homo sapiens, UniProt Q8NG66); experiment: KINOMEscan; settings: read-out: Percent Control
# Procedure: as §1
# [34] = biological target: LYN (Homo sapiens, UniProt P07948); experiment: KINOMEscan; settings: read-out: Percent Control
# LYN, sequence (P07948 whole entry): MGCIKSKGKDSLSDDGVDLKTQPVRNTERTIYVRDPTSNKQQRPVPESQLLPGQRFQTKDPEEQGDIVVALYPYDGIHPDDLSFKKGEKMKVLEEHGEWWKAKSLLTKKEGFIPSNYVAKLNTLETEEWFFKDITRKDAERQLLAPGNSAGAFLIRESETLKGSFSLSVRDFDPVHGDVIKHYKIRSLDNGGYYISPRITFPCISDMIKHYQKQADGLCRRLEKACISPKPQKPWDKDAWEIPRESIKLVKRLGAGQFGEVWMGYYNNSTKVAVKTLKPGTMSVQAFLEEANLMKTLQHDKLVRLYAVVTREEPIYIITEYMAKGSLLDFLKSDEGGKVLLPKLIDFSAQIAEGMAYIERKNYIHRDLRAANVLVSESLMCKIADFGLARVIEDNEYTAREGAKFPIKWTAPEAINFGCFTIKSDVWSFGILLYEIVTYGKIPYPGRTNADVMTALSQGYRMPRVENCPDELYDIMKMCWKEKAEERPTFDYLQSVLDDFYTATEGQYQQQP
# Procedure: as §1
# EGFR(G719C), sequence (P00533 25-1210 G719C): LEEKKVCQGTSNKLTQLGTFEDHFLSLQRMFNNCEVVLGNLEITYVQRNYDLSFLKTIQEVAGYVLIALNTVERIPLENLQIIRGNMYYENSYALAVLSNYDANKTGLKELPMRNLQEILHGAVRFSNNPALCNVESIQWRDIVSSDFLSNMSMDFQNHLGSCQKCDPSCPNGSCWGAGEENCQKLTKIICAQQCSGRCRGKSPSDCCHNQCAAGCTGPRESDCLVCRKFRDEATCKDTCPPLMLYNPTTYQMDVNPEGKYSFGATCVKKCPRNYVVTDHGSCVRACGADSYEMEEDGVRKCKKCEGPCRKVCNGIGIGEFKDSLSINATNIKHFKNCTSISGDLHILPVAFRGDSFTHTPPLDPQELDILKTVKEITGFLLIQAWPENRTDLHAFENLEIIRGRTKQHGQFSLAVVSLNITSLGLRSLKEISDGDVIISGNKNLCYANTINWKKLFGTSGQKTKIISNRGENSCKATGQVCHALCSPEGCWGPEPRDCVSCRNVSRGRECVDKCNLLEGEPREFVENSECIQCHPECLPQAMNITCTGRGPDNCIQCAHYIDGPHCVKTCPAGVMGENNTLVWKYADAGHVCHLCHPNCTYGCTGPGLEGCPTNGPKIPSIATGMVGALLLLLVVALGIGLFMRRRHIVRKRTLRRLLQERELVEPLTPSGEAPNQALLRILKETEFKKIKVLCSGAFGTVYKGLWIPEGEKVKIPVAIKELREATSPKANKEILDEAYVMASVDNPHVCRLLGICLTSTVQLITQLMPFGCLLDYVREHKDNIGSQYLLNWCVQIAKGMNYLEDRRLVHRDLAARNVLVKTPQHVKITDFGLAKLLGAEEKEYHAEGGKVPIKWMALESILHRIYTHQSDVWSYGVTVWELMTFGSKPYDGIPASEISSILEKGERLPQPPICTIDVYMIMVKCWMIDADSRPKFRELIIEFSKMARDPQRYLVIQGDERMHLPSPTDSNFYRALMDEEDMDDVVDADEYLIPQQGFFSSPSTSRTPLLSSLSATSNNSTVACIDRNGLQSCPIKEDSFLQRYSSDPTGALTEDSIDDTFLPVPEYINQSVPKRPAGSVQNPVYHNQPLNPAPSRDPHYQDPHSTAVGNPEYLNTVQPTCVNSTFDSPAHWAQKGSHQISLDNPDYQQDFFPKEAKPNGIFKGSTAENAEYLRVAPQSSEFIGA
# NLK, sequence (Q9UBE8 whole entry): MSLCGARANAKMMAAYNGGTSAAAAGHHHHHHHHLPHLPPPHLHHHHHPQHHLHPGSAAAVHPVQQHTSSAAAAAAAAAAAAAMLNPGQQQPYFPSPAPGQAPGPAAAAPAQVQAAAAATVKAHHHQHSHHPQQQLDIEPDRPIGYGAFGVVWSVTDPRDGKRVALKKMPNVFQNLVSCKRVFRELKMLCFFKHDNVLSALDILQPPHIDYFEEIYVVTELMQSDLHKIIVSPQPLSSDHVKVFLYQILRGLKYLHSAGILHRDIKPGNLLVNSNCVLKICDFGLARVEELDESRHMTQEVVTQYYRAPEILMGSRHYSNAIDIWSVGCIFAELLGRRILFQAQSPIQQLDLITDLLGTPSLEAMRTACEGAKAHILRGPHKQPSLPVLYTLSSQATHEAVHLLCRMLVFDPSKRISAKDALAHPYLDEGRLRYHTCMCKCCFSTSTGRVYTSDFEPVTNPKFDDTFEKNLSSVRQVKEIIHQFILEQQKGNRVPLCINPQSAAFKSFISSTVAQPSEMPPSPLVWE
# INSR, sequence (P06213 28-1382): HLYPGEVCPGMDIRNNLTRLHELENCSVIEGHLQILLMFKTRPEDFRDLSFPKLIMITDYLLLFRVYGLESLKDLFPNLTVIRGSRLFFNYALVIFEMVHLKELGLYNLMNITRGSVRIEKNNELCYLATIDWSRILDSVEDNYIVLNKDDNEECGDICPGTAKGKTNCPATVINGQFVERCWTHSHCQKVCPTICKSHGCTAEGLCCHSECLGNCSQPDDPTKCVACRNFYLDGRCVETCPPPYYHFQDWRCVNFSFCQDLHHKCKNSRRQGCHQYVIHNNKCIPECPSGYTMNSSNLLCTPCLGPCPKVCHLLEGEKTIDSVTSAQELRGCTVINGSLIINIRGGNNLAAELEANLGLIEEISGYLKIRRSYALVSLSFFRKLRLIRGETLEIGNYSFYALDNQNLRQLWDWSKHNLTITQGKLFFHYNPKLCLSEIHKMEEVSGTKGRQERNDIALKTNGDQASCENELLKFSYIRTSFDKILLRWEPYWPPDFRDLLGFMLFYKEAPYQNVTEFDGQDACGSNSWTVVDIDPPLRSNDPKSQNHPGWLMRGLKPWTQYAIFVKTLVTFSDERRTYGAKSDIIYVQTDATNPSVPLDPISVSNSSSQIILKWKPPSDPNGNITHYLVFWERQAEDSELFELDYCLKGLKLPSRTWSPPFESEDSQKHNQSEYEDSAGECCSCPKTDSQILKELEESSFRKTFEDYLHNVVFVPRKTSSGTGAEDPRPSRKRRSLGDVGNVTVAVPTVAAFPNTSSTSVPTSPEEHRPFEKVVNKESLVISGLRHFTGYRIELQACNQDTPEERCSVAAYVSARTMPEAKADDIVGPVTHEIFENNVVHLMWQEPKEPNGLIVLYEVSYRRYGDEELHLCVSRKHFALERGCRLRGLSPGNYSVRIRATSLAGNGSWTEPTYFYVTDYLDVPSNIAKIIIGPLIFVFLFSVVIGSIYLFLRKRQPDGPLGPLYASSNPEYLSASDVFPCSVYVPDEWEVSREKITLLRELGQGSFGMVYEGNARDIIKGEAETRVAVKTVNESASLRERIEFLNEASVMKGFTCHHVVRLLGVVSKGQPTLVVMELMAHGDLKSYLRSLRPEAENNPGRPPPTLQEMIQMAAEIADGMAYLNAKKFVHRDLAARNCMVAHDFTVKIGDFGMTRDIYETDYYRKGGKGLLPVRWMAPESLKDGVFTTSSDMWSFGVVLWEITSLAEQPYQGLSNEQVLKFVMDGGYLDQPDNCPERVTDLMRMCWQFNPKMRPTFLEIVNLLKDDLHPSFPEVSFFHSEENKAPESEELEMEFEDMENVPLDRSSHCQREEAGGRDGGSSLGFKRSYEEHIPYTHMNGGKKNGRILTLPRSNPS
# ACVR1B, sequence (P36896 24-505): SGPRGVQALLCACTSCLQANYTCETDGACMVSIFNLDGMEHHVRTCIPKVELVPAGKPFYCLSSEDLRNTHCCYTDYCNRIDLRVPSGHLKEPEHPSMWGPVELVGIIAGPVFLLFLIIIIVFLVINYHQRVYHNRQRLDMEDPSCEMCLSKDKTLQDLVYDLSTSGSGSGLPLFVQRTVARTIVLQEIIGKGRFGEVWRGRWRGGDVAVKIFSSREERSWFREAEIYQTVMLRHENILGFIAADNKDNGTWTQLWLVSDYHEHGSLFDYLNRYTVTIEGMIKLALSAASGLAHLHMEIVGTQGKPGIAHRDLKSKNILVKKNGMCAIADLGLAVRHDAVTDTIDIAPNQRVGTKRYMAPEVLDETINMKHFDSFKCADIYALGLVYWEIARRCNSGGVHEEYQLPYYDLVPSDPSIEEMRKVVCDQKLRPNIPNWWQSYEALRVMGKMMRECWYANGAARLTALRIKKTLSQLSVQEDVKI
# FYN, sequence (P06241 whole entry): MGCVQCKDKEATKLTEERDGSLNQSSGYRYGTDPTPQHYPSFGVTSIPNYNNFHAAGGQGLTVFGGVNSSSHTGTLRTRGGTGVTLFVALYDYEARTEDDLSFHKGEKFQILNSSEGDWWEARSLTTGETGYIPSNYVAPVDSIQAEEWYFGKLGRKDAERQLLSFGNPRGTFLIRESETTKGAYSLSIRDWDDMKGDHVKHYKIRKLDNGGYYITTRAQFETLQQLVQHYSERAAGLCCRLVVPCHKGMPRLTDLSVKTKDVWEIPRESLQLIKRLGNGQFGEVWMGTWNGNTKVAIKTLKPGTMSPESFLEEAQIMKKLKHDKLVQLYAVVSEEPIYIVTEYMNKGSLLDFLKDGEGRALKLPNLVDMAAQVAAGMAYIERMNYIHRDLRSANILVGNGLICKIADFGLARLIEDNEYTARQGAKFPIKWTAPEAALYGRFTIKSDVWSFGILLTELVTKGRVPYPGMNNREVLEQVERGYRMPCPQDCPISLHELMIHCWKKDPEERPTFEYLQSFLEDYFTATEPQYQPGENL
# TSSK3, sequence (Q96PN8 whole entry): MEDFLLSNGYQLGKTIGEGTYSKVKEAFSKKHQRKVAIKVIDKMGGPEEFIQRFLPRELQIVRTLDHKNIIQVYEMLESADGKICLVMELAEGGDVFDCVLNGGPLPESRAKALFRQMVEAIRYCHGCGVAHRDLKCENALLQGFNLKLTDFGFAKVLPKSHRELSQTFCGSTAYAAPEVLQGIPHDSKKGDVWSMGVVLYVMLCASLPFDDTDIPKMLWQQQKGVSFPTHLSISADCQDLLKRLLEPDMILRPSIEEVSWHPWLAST
structure (smiles),measurement,setting,value
"O=C1CCC(N2C(=O)c3cccc(NCCCCCCCCNC(=O)N4CC[C@H](NC5=Nc6cc(F)ccc6N(CC(F)F)c6ccc(Cl)cc65)C4)c3C2=O)C(=O)N1 (stereo partly drawn) [BJG-05-039, (3S)-3-((2-Chloro-5-(2,2-difluoroethyl)-8-fluoro-5H-dibenzo[b,e][1,4]diazepin-11-yl)amino)-N-(8-((2-(2,6-dioxopiperidin-3-yl)-1,3-dioxoisoindolin-4-yl)amino)octyl)pyrrolidine-1-carboxamide]",remaining binding at 10 µM,[1],100%
same,remaining binding at 10 µM,[2],84%
same,remaining binding at 10 µM,[3],49%
same,remaining binding at 10 µM,[4],100%
same,remaining binding at 10 µM,[5],100%
same,remaining binding at 10 µM,[6],75%
same,remaining binding at 10 µM,[7],66%
same,remaining binding at 10 µM,[8],84%
same,remaining binding at 10 µM,[9],46%
same,remaining binding at 10 µM,[10],99%
same,remaining binding at 10 µM,[11],65%
same,remaining binding at 10 µM,[12],53%
same,remaining binding at 10 µM,[13],89%
same,remaining binding at 10 µM,[14],90%
same,Ability to degrade PAK1,[15],most promising profile
same,remaining binding at 10 µM,[16],94%
same,remaining binding at 10 µM,[17],46%
same,remaining binding at 10 µM,[18],91%
same,remaining binding at 10 µM,[19],85%
same,remaining binding at 10 µM,[20],93%
same,remaining binding at 10 µM,[21],92%
same,remaining binding at 10 µM,[22],53%
same,remaining binding at 10 µM,[23],82%
same,remaining binding at 10 µM,[24],85%
same,remaining binding at 10 µM,[25],100%
same,remaining binding at 10 µM,[26],83%
same,remaining binding at 10 µM,[27],71%
same,remaining binding at 10 µM,[28],53%
same,remaining binding at 10 µM,[29],74%
same,remaining binding at 10 µM,[30],100%
same,remaining binding at 10 µM,[31],62%
same,remaining binding at 10 µM,[32],47%
same,remaining binding at 10 µM,[33],100%
same,remaining binding at 10 µM,[34],79%
